Test results as given in patent US20230348518A1 (priority 2020, published 2023).
Entries after “also recorded” stand apart in the source; their conditions may differ.

Key:
HeLa cells = settings: supra-physiologic doses; cited from earlier work
human CMG (hCMG) = system: T1, human CMG (hCMG); experiment: human CMG biochemical assays (primary and secondary), format not specified; settings: for inhibition of the human CMG in biochemical assays (primary and secondary): in vitro
T1 construct: made in house; host or cells: insect cells (Sf9), baculoviruses
Description: (§1) We have focused on the enzymatic ATP hydrolysis steps used by the core MCM hexamers of the CMG helicase to identify ATP competitive inhibitors of […] and/or hydrolysis within one or more of the MCM hexamer pairs. To do this, we established a means to express and purify the human CMG helicase in our lab, and then we verified the isolated CMG is active in DNA unwinding assays. We then set up a novel assay to quantitatively measure ATP hydrolysis (ADP production) by the human CMG. This assay used reagents that are sensitive enough to read small changes in ADP production from our functioning CMG helicase in an in vitro biochemical enzyme assay. This assay relies on reading fluorescent-polarization (FP) changes from an antibody that binds to an ADP-fluorophore molecule that is displaced when the CMG produces ADP on its own. The results are obtained using a Perkin-Elmer Envision II FP plate reader. This approach is referred to as our primary screening assay. Our secondary screening assay, which is lower through-put, uses a traditional radioactive-based DNA fork unwinding method of analysis to verify whether a given potential CMGi is truly capable of inhibiting CMG elongation along DNA and subsequent fork unwinding.

human CMG helicase [1] = system: T2, human CMG helicase; experiment: fluorescent-polarization (FP) assay measuring ADP production; format: biochemical; settings: for CMG activity inhibited: 1 mM, fluorescence-polarization assay; for inhibition of CMG helicase in fluorescent-polarization assay: FIG. 3
T2 construct: made in house; host or cells: insect cells (Sf9), baculoviruses
Description: as §1
The components for the assay used for ATP hydrolysis measurements of the hCMG are produced by BellBrook Labs, and the kit is called the ADP2 Transcreener™ FP Assay. […] As shown in FIGS. 10A-10B, the hCMG is incubated with ATP, buffer, and non-radioactive fork substrates for a determined length of time to allow hCMG activity to occur (or not, if an inhibitor is present). This produces ADP, which is recognized by the FP assay when free ADP competes an ADP-fluor off of a patented antibody that binds ADP with high affinity. […] But this polarity is reduced in a quantitative manner depending on the presence of free ADP (produced by the hCMG here), once the ADP-fluor is released from the antibody. Noteworthy, the fluor (Alexa 633) used here is in the far-red spectrum, which reduces problems during screening that can (likely) occur when chemicals themselves emit red or green wavelengths that interfere with plate reader steps (can give false positives). The system is very sensitive to even small changes in ADP production, being able to sense 0.5-2% changes quite easily (verified in our hands, using ADP-ATP standard curves). Low substrate conversion to ADP can be detected with a Z′-factor≥0.7 at 2.5% ATP conversion. The latter is achieved with a read time of less than 5 minutes. Signal stability is greater than 24 hr, and ADP-FP reagents are stable at RT for 8 hrs and tolerate 1% DMSO. Light output is also stable in the presence of up to 10% DMSO, DMF, ethanol, acetonitrile, or methanol solvents. ATP starting concentrations can be within the range of 0.1-1000 μM, and our hCMG enzyme requires 500 μM ATP for functioning near its published Km, which has been verified applies to the hCMG preparations (not shown).
Since hCMG is purified, feasibility testing of the FP assay was performed with the hCMG (FIGS. 10A-10B). Cubes, filters, and mirrors for dual-FP analysis were obtained using PE Envision II equipment, and such items were verified as functional. A window for change in millipolarizations (AmP window) is established with reagents alone, and the amount of patented antibody needed to achieve an optimal window is pre-determined in pilot titration assays using ATP at the required 500 μM level. […] Using formulas BellBrook Labs supplies for their reagents, it was also calculated that the assay was working with a Z′-factor of >0.6 (calculations not shown). Optimal ΔmP can be as high as 80% change (EC80). Achieving this will also increase our Z′-factor to 0.8-0.9.

human CMG helicase [2] = system: T2, human CMG helicase; experiment: radioactive DNA fork unwinding helicase assay; format: biochemical; settings: for inhibition of CMG activity in fork unwinding assay: 0.5 mM, 30 minutes at 37 degrees Celsius, compared to Novobiocin; for inhibition of human CMG helicase in fork unwinding assay: in vitro, FIG. 2
Description: as §1
The human CMG helicase assay was performed with purified CMG before glycerol gradient centrifugation. Novobiocin (Compound A), Clorobiocin (Compound D), and Coumermycin A1 (Compound B) were incubated with 2 μL human CMG and 1 μL ^32P-labeled DNA forks for 30 minutes at 37 degrees Celsius. The reactions were stopped with 6× loading buffer, separated in 10% PAGE, and dried on filter paper followed by autoradiography.
(§2) For feasibility of this example, it is shown that sufficient quantities of enzymatically active hCMG can be purified using an established approach (FIGS. 9A-9D). This method of hCMG purification was previously devised by the Hurwitz lab and involves the co-expression of all 11 subunits of the hCMG using baculoviruses and insect cells, followed by a five-step chromatography-based enrichment scheme. The steps of the purification are outlined in FIG. 9A, with Westerns on isolated fractions used to assess the completeness of hCMG subunits and enzyme recovered after the final glycerol gradient step (FIG. 9B). […] Activity is measured using a classical fork-unwinding helicase assay that relies on radioactive forks being separated, and ssDNA being recognized and quantifiable in gels using PhosphorImager analyses (FIG. 9D). SV40-derived Tag helicase was also purified as a positive control, and our active hCMG is close in forkunwinding output to that of TAg. […] Given that multiple fractions produce active hCMG, this provides ample quantities of hCMG to design, calibrate, and test a workflow for hCMG chemical screening. […]

[3] = biological target: HPV31 E1 helicase (full-length) (Human papillomavirus 31, UniProt P17382); experiment: HPV31 E1 helicase inhibition; format: biochemical
Sequence of HPV31 E1 helicase (full-length) (P17382 whole entry): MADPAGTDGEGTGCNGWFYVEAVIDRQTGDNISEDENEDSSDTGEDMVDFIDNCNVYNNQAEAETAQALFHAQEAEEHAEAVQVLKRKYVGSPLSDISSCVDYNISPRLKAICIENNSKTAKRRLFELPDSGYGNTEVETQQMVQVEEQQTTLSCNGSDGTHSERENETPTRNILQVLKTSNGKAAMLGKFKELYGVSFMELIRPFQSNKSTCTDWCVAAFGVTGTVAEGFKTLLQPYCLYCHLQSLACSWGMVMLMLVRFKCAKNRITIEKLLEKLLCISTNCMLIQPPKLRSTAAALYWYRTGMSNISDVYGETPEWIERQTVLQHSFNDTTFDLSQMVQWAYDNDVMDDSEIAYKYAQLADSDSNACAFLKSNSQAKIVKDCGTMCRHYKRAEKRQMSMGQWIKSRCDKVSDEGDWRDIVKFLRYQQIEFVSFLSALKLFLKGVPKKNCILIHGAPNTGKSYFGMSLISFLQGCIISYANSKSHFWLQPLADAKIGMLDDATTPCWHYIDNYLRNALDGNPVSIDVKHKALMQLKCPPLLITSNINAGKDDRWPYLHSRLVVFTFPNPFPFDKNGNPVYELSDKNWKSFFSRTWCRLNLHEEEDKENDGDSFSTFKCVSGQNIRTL

OS tumor = OS tumor growth in mice; format: in vivo
OS tumor cells = experiment: inhibition of osteosarcoma tumor cells; format: cell-based; settings: FIGS. 14A-14F
[4] = system: Hacat non-tumor skin cells; experiment: sensitivity of non-tumor Hacat cells; format: cell-based; settings: FIGS. 17 and 19
[5] = biological target: T3, Simian virus 40 (SV40) large-T-antigen (Tag) DNA helicase (Simian virus 40, UniProt P03070); experiment: classic fork unwinding assay; format: biochemical; settings: in vitro, FIG. 2 and titration FIG. 11
T3 construct: made in house
T3 sequence (P03070 whole entry): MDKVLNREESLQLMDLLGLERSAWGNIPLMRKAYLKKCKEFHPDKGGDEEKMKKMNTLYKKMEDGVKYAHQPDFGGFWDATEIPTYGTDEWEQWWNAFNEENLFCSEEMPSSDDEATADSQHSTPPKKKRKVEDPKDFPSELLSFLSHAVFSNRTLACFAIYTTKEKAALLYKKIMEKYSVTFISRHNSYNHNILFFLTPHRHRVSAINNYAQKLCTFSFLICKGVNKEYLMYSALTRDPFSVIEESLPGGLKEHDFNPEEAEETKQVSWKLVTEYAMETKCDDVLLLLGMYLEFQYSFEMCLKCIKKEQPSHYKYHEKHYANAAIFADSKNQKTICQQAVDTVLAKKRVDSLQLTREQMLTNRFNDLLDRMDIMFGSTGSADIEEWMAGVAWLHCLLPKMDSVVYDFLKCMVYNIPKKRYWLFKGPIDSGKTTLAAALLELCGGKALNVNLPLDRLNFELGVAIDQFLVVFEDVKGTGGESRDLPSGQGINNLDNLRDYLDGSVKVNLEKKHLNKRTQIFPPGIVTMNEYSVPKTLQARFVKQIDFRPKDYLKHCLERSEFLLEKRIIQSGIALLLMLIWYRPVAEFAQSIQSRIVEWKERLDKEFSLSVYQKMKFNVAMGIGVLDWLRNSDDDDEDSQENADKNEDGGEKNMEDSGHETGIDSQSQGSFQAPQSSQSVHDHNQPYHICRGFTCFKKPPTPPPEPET
Description: as §2, with “TAg. Each prep of hCMG thus obtained is giving us -5-10 fmol of hCMG per uL of glycerol gradient fraction, with fractions totaling 150-170 uL (3-4 fractions obtained with obvious hCMG; FIG. 9B). Only 1 uL hCMG is required to easily see activity using this method (FIG. 9D).” for “TAg.”

HPV16 E1 helicase [6] = experiment: HPV16 E1 helicase inhibition; format: biochemical; settings: for inhibition of E1 helicase from HPV16: FIG. 12, construct not stated
HPV16 E1 helicase [7] = biological target: HPV16 E1 helicase (Human papillomavirus type 16, UniProt P03114); experiment: HPV16 E1 helicase inhibition; format: biochemical; settings: full-length
Sequence of HPV16 E1 helicase (Human papillomavirus type 16, UniProt P03114) (P03114 whole entry, the tested form may be a part): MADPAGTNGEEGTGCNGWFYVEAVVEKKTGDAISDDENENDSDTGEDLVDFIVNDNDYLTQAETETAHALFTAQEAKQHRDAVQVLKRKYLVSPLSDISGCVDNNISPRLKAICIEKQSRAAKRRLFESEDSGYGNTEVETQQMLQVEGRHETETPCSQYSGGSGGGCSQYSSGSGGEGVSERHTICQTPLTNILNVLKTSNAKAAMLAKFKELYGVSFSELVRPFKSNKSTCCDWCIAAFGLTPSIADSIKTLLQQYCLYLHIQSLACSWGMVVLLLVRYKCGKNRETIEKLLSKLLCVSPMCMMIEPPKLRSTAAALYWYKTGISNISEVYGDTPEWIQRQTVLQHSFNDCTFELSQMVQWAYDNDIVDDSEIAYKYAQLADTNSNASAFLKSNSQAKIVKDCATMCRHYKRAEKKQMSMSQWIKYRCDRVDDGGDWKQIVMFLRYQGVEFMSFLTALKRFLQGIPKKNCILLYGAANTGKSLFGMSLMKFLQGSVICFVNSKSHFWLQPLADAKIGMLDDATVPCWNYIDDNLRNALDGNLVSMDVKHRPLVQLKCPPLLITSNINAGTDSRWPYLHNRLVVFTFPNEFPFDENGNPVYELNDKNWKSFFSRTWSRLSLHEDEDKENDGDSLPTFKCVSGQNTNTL

[8] = biological target: HPV18 E1 helicase (helicase domain only) (Human papillomavirus type 18, UniProt P06789); experiment: HPV18 E1 helicase inhibition; format: biochemical
Sequence of HPV18 E1 helicase (helicase domain only) (P06789 458-608 limits assumed): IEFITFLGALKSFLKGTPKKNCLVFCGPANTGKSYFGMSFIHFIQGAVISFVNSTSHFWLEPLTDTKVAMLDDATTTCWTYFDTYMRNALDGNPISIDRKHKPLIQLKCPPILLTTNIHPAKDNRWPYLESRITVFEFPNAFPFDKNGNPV

multiple tumor types = experiment: sensitivity of multiple tumor types; format: cell-based; settings: low doses, FIG. 17
[9] = system: DNA damage / Parp cleavage in tumor cells; experiment: DNA damage and Parp cleavage in cells; format: cell-based; settings: tumor cells versus Hacat
[10] = system: MCM assembly and activity; experiment: MCM assembly and activity in cells; format: cell-based; settings: Hacat cells and OS tumor cells (143b)
[11] = system: RPA loading onto DNA/chromatin in A549 NSCLC cells; experiment: RPA32 western blot of total cell extracts and chromatin-bound fractions; format: cell-based; settings: A549 NSCLC cells, 0.1, 10, or 25 μM, 48 hours
Description: Cells were harvested and protein from each group isolated into total cell extracts (TCE) or chromatin-bound fractions. Standard SDS-PAGE followed by western blot was used to separate proteins and probe for RPA32 presence in TCE and bound chromatin. Actin serves as a loading control. […] There is also some toxicity of Coumermycin A1 (Compound B).

| Compound | inhibition of the human CMG in biochemical assays (primary and secondary) (human CMG (hCMG)) | CMG activity inhibited (human CMG helicase [1]) [%] | inhibition of CMG helicase in fluorescent-polarization assay (human CMG helicase [1]) | inhibition of CMG activity in fork unwinding assay (human CMG helicase [2]) | inhibition of OS tumor cells versus non-tumor cells (Hacat) (OS tumor cells) | inhibition of SV40 Tag helicase in fork unwinding assay [5] | inhibition of E1 helicase from HPV16 (HPV16 E1 helicase [6]) | inhibition of human CMG helicase in fork unwinding assay (human CMG helicase [2]) | further results |
| --- | --- | --- | --- | --- | --- | --- | --- | --- | --- |
| O=C(O)c1cn(C2CC2)c2cc(N3CCNCC3)c(F)cc2c1=O [ciprofloxacin] | – | – | – | – | – | – | – | – | cell growth of HeLa cells (HeLa cells): stopped cell growth |
| CO[C@@H]1[C@@H](OC(=O)c2ccc(C)[nH]2)[C@@H](O)[C@H](Oc2ccc3c(O)c(NC(=O)c4ccc(O)c(CC=C(C)C)c4)c(=O)oc3c2Cl)OC1(C)C [clorobiocin] | very effectively inhibit the human CMG helicase in vitro; also recorded: effectively inhibit the human CMG | 81.5 | inhibiting CMG helicase | inhibit CMG activity | – | – | – | – | inhibition of human CMG (hCMG), dose dependence (human CMG (hCMG); FIG. 24): inhibits human CMG (hCMG) in a dose-dependent manner; inhibition of human CMG (hCMG) (human CMG (hCMG); direct comparison to novobiocin (500 uM), FIG. 25): inhibits human CMG (hCMG) |
| CO[C@@H]1[C@@H](OC(=O)c2ccc(C)[nH]2)[C@@H](O)[C@H](Oc2ccc3c(O)c(NC(=O)c4c[nH]c(C(=O)Nc5c(O)c6ccc(O[C@@H]7OC(C)(C)[C@H](OC)[C@@H](OC(=O)c8ccc(C)[nH]8)[C@H]7O)c(C)c6oc5=O)c4C)c(=O)oc3c2C)OC1(C)C [coumermycin-A1, coumermycin A1] | effective CMGi | 91.7 | inhibiting CMG helicase | inhibit CMG activity | inhibits OS tumor cells with more specificity than non-tumor cells (Hacat) | capable of being inhibited; also recorded: inhibiting SV40 Tag helicase | can be directly inhibited | capable of being inhibited | inhibition of HPV31 E1 helicase [3]: is inhibited; OS tumor growth in mice (OS tumor; 12 day analysis): suppresses OS tumor growth in mice; OS tumor growth in mice (OS tumor; 18 day analysis): suppresses OS tumor growth in mice; sensitivity of Hacat non-tumor cells to CMG helicase inhibition [4]: far less sensitive; inhibition of HPV16 E1 helicase (HPV16 E1 helicase [6]; helicase domain only): is inhibited; inhibition of HPV16 E1 helicase (HPV16 E1 helicase [7]): is inhibited; inhibition of HPV18 E1 helicase [8]: is inhibited; sensitivity of multiple tumor types to CMG helicase inhibition (multiple tumor types): sensitive to low doses; DNA damage leading to Parp cleavage [9]: causes DNA damage specifically in tumor cells; inhibition of MCM assembly and activity [10]: inhibits MCM assembly and activity; toxicity [11]: some toxicity; RPA loading onto DNA/chromatin (RPA32 in chromatin-bound fraction) ([11]; listed as Coumermycin A1): inhibits RPA loading onto DNA/chromatin; RPA loading onto DNA/chromatin (RPA32 in chromatin-bound fraction) ([11]; listed as coumermycin A1): inhibiting RPA loading onto DNA/chromatin |
| CO[C@@H]1[C@@H](OC(N)=O)[C@@H](O)[C@H](Oc2ccc3c(O)c(NC(=O)c4ccc(O)c(CC=C(C)C)c4)c(=O)oc3c2C)OC1(C)C [novobiocin] | not to inhibit the human CMG at any level of exposure | 12.5 | does not | – | does not inhibit any cells | not | can be directly inhibited | not | RPA loading onto DNA/chromatin (RPA32 in chromatin-bound fraction) [11]: does not inhibit RPA at all |
